We go through nine compounds from ChEMBL document CHEMBL1201862, “PubChem BioAssay data set” (2004).

In general, AC50 refers to the concentration at which the activity in the assay is half-maximal. For orientation: EC50 means the concentration giving half of the maximal effect.

Assay [1] in a line: HEK293T cell cytotoxicity, dose response, cytotoxicity control, CellTiter-Glo luminescence, cherry-picked samples, set 4 (AID 743441). As to conditions: HEK293. Type of assay: functional, cell-based. (In general: Cellular ATP, detected with luciferase, serves as a proxy for viable cell number.)
Another assay concerns H4. The experiment in a line: Luminescence Cell-Based Dose Response HTS to Identify Activators of 5'UTR Stem-Loop Driven Prion Protein mRNA Translation in H4 Neuroglioblastoma Cells. [Related pubchem assays: 1829 (Project Summary), 1814 (Primary HTS)]. It is filed as functional. As to conditions: Homo sapiens.
A short description of assay [2]: Luminescence Cell-Based Dose Response HTS to Identify Activators of Luciferase Translation or Activity in H4 […] Cells. [Related pubchem assays: 1829 (Project Summary), 1814 (Primary HTS)]. It is filed as functional.
Assay [3] in a line: insulin promoter down-regulators in MIN6 cells, imaging, high-content screening, mouse beta cells (AID 1628). Type of assay: functional.
The nature of assay [4]: cytotoxicity in MIN6 insulinoma cells, dose response, cytotoxicity control, cell-based, mouse insulinoma (AID 2122).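 Also: confirmatory high-throughput counterscreen run to flag cytotoxic compounds; mouse MIN-6 beta cells carrying an insulin promoter eGFP reporter.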 Type of assay: functional.
The next assay has as its target Protein Wnt-3a (Mus musculus, UniProt P27467). The experiment in a line: Wnt3a-driven reporter signaling inhibition, dose response, selectivity assay for Gli-SUFU antagonist project, Wnt-LIGHT cells, luminescence (AID 651570).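 Also: Wnt-LIGHT reporter cells stimulated with conditioned medium from Wnt3a-producing cells.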 Type of assay: functional. As to conditions: read-out: IC50_Mean.
The target of the next assay is Large T antigen (Simian virus 40, UniProt P03070). It is filed as functional, Betapolyomavirus macacae.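 Also: Confirmatory-stage PubChem screen for compounds that inhibit SV40 T antigen.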
Large T antigen, sequence (P03070 whole entry): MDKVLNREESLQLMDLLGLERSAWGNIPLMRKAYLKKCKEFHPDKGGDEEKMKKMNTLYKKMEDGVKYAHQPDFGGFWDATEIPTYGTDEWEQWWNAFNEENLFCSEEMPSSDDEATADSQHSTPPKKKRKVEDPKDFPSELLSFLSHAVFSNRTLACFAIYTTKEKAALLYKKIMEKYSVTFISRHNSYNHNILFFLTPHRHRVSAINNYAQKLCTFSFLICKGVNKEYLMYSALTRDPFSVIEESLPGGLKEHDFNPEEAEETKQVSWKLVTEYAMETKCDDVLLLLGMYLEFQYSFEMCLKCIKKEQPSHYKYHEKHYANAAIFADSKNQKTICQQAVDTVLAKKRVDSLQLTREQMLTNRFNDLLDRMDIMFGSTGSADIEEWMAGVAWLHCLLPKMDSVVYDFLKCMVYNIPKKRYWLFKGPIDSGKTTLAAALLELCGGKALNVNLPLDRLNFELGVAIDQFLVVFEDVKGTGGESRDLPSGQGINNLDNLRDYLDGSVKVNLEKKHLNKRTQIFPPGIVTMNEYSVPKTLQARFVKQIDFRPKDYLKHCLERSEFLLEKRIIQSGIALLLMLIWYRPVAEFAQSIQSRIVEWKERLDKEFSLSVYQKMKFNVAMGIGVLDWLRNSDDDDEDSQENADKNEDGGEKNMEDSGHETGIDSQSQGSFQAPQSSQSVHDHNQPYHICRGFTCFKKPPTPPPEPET
Assay [5] concerns the target T1, Sentrin-specific protease 1 (Homo sapiens, UniProt Q9P0U3). The experiment in a line: potency of human SENP1 inhibitors, dose response, biochemical, kinetic FRET (AID 651697). Type of assay: functional. As to conditions: read-out: IC50_Mean.
Assay [6] deals with T1, Sentrin-specific protease 1. Briefly: Dose response confirmation of small molecule inhibitors of the catalytic domain of the SUMO protease, SENP1 in a FRET assay. Type of assay: functional. As to conditions: read-out: IC50_Mean.
Assay [7] can be described thus: cytotoxicity in HeLa cells, dose response, cytotoxicity control, cell-based, 24 h, dry powder, set 2 (AID 651774). Type of assay: functional.
A short description of assay [8]: CFTR ΔF508 corrector activity in bronchial cells, dose response, human bronchial epithelial cells, plate reader, cherry-pick, two tests (AID 743267). Type of assay: functional, cell-based.
Assay [9] has as its target T2, Small ubiquitin-related modifier 1 (Homo sapiens, UniProt P63165). Briefly: inhibitors of SUMO1 peptide binding, dose response, biochemical, fluorescence polarization, uHTS hits (AID 624382). It is filed as functional. As to conditions: read-out: IC50_Mean. A general note: Fluorescence polarisation rises when a labelled molecule tumbles more slowly, as on binding a larger partner.

Another assay addresses T3, Aminopeptidase N (Plasmodium falciparum FcB1/Columbia, UniProt O96935).
T3 sequence (O96935 whole entry): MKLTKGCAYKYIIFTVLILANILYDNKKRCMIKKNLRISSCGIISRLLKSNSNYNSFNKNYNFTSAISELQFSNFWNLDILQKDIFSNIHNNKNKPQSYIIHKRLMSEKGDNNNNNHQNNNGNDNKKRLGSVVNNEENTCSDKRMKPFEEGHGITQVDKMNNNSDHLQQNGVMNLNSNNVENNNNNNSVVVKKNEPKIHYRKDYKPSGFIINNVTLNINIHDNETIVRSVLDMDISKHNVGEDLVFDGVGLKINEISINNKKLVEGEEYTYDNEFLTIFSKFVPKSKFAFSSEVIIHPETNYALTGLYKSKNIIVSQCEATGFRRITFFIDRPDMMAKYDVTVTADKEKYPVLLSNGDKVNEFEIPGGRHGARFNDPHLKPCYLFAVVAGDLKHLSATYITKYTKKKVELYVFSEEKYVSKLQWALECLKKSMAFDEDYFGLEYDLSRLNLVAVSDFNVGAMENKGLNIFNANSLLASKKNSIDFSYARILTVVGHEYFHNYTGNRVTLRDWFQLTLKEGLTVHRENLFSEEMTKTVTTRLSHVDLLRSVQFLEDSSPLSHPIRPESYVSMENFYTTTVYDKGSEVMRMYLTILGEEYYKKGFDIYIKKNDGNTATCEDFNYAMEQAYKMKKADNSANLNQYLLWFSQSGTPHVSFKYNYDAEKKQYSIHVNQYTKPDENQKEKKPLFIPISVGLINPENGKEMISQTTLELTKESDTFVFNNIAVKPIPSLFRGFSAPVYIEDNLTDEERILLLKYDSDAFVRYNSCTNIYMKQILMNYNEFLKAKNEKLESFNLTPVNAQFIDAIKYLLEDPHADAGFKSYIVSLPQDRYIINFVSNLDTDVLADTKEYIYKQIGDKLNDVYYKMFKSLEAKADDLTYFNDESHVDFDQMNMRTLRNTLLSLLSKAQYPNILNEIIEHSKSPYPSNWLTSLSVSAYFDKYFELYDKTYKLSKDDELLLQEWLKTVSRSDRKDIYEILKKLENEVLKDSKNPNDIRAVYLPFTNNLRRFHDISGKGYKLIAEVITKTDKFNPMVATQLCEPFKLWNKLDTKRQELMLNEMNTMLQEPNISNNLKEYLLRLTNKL
The experiment in a line: P. falciparum M1AAP inhibitors, biochemical, fluorogenic H-Leu-NHMec substrate, 1536-well (AID 1445). On the set-up: species or system Plasmodium falciparum 3D7, 3D7.

Assay [10] addresses T4, Small ubiquitin-related modifier 2 (Homo sapiens, UniProt P61956). The experiment in a line: inhibitors of SUMO2 protein-protein interaction, dose response, selectivity assay for SUMO1 interaction inhibitor project, biochemical, FRET, human SUMO2, uHTS hits (AID 624384). As to conditions: read-out: IC50_Mean. It is filed as functional.
Assay [11] addresses T2, Small ubiquitin-related modifier 1. Briefly: inhibitors of SUMO1 partner interactions, dose response, biochemical, FRET (AID 624383). Type of assay: functional. As to conditions: read-out: IC50_Mean.
Assay [12] has as its target T4, Small ubiquitin-related modifier 2. Briefly: SUMO2–SIM peptide binding inhibitors, dose response, selectivity assay for SUMO1 interaction inhibitor project, biochemical, fluorescence polarization, uHTS hits (AID 624385). It is filed as functional. As to conditions: read-out: IC50_Mean.
Assay [13] can be described thus: HEK293T cytotoxicity, dose response, cytotoxicity control for miR-122 modulator project, cell-based, inhibitor set, cherry-pick, set 2 (AID 720697). Type of assay: functional.
A short description of assay [14]: intracellular Trypanosoma cruzi inhibitors in host cells – cell-based, plate reader, cherry-pick samples, set 3, dose response (AID 651818).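 Also: compounds incubated with infected cells for about four days.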 Type of assay: functional.
Assay [15] is described as follows: NIH/3T3 fibroblast cytotoxicity, dose response, cytotoxicity control for T. cruzi growth inhibitor project, cell-based, cherry-pick samples, set 2 (AID 651817). Type of assay: functional. As to conditions: NIH3T3.
A short description of assay [16]: human group III sPLA2 inhibitors, dose response, biochemical, QFRET, IC50 (AID 743457).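 Also: green fluorescence rise as the enzyme cleaves BODIPY PC-A2 in liposomes; potency for inhibition of the enzyme.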
Assay [17] is described as follows: Counterscreen for […] of the human trace amine associated receptor 1 (TAAR1): Fluorescence-based cell-based high throughput dose response assay to identify nonselective Ga16 agonists. It is filed as functional. (In general: A counterscreen serves to expose hits that act by an unwanted route or on another target.)
Assay [18] deals with T5, Trace amine-associated receptor 1 (Homo sapiens, UniProt Q96RJ0).
T5 sequence (Q96RJ0 whole entry): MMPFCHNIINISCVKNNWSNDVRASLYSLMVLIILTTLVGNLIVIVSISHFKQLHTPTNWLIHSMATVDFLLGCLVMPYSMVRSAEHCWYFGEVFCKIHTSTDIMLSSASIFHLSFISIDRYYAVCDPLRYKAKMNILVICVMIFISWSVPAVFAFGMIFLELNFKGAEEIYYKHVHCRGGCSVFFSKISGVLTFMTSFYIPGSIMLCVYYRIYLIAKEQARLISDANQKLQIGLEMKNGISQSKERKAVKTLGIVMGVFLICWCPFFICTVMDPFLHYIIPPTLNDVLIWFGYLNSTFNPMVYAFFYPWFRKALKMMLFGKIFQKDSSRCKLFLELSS
The experiment in a line: Fluorescence-based cell-based high throughput dose response assay to identify antagonists of the human trace amine associated receptor 1 (TAAR1). Type of assay: functional.

Assay [19] can be described thus: Counterscreen for antagonists of the human trace amine associated receptor 1 (hTAAR1): Fluorescence-based cell-based high throughput dose response assay to identify nonselective Ga16 antagonists. Type of assay: functional.
The target of assay [20] is T5, Trace amine-associated receptor 1. Briefly: Counterscreen for antagonists of the human trace amine associated receptor 1 (hTAAR1): Fluorescence-based cell-based high throughput dose response assay to identify TAAR1 Agonists. Type of assay: functional.

Calls of active or inactive are those of the source.

T2 sequence (P63165 whole entry): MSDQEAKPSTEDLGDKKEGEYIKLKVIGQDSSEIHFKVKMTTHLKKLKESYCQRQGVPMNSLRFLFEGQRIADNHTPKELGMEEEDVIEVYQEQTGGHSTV
T1 sequence (Q9P0U3 whole entry, the tested form may be a part): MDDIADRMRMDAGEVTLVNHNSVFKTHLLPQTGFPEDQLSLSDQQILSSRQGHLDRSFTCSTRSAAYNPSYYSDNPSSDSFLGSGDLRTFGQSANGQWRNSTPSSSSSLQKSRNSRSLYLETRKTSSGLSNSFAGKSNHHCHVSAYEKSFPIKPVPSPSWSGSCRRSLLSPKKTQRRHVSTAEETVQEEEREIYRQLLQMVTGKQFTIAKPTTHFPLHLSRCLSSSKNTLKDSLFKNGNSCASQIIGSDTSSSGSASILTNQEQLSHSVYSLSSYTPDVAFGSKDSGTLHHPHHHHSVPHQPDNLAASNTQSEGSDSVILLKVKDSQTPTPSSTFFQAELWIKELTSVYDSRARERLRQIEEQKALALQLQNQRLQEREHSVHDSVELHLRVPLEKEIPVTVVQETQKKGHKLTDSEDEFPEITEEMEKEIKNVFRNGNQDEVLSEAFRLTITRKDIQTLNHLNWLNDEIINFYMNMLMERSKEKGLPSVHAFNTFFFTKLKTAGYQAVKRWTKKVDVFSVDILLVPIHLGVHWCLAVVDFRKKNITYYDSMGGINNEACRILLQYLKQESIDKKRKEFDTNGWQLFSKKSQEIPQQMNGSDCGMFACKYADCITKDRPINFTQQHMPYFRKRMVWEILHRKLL
T4 sequence (P61956 whole entry): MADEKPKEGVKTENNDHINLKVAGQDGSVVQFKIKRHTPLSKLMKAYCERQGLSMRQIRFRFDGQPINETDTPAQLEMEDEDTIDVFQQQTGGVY
Protein Wnt-3a, sequence (P27467 whole entry): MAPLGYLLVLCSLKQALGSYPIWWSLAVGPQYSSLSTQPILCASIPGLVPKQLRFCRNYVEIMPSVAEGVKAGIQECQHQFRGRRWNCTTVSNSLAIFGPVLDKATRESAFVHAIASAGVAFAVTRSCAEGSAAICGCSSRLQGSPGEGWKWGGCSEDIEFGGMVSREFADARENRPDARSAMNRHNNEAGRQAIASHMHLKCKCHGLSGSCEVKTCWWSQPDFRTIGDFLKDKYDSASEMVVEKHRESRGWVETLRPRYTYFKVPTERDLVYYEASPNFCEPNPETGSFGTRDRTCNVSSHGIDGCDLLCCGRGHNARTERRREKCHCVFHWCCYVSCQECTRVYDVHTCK

In the case of `COc1ccc(Cn2c(-c3ccc(Cl)cc3)c[n+]3ccccc23)cc1`, the AC50 in [1] was 39.3 µM (active). The 50% effective concentration (EC50) (in the assay with H4; in assay [2]) was > 120 µM (not active) in each case. The IC50 was 1.35 µM (active) in [3], 1.02 µM (active) in assay [4] and 36.9 µM (inactive) at Protein Wnt-3a.

For `Cc1ccc(-c2nc3ncccn3c2NC2CCCCC2)o1`, the IC50 at Large T antigen is 25.9 µM (active); in [5], 19.7 µM (active); in assay [6], 8.98 µM (active).

As to `CCc1ccc(C(=O)Nc2nnnn2CC)cc1`, the AC50 in assay [7] was > 70 µM (inactive).

On to `COc1cccc(S(=O)(=O)N2C[C@@H]3N[C@H](C2)[C@@H]3c2ccc(-c3cccc(C)c3)cc2)c1`, for which the AC50 in assay [8] is 16 µM (active).

With `Nc1cccc2[nH]c(C(F)(F)F)nc12`, the IC50 was 26.8 µM (inactive) in assay [9]; 80.8 µM (active) at Aminopeptidase N; 10.4 µM (active) in [10]; 37 µM (inactive) in [11]; 29.8 µM (inactive) in assay [12].

Consider `CC(=O)N1[C@H](CN(C(=O)c2ccc(F)cc2)C(C)C)[C@H](c2ccccc2)[C@@H]1CO`, for which the AC50 in assay [13] is 10.5 µM (active).

As to `Cc1ccc(S(=O)(=O)Nc2ccc3c(c2)CC(=O)N([C@H](C)CO)C[C@@H](C)[C@@H](CN(C)S(=O)(=O)c2ccc(Cl)cc2)O3)cc1`, the concentration at half-maximal activity (AC50) in assay [14] was 1.96 µM (active); in assay [15], 33.1 µM (active).

With `CCCCn1c(S)nnc1C12CC3CC(CC(C3)C1)C2`, the IC50 in [16] was > 122 µM (inactive).

As for `O=[N+]([O-])c1ccc(-c2c(-c3ccccc3)ncc3cc(F)ccc23)cc1`, the EC50 in [17] and in assay [20] was > 29.9 µM (inactive) throughout. The IC50 was 4.77 µM (active) in assay [18] and > 29.9 µM (inactive) in assay [19].
